Data reported in patent US20240024350A1, “ANTI-CANCER COMPOSITION CONTAINING AURANOFIN AND MERCAPTO COMPOUND AND USE THEREOF” (SUN YAT-SEN UNIVERSITY, priority 2020, published 2024).

How the values were obtained:
[1] = system: HCT116 human colon cancer cells; test: MTT colorimetric proliferation / cell survival assay, HCT116; conditions: for Cell survival rate (%): compound alone, others not given; for Cell survival rate (%) / Cell survival rate after addition of 10 μM auranofin (%): with 30% FBS, 50 μM for TGTA, β-mercaptoethanol, mercaptoethylamine, DEDT; for Cell survival rate after addition of 10 μM auranofin (%): compound plus 10 μM auranofin, listed as Auranofin = auranofin alone
[2] = system: PC9 human lung cancer cells; test: MTT cell survival assay, PC9; type: cell-based; conditions: TGTA 50 μM
Procedure: (§1) A flask with the cancer cells required for the experiment, with an original culture solution discarded, was washed for three times with 2 mL of PBS, 1 mL of pancreatin was added for digestion for 30 s, and 2 mL of a medium was added to terminate the digestion. The cells were transferred to a centrifuge tube and centrifuged at 1000 rpm for 3 min, the supernatant was discarded, and 2 mL of a medium was added and blew 10 times to be mixed uniformly. 10 μL of a cell suspension was taken for cell counting, and spread on a 96-well plate, with 5000 cells per well and 3 duplications for each compound, and then the number of cells and cell wells was calculated. The amount of required cell suspension and the number of cells for medium dilution were calculated by cell counting. 100 μL of medium was plated with 5000 cells per well, pipetted and mixed uniformly, and the cells were inoculated using a volley, placed in an incubator for culture, and marked. […]
(§2) According to the results of Table 1-2, the killing effect of auranofin in combination with various compounds (with 30% FBS) on HCT116 human colon cancer cells and the killing effect of the auranofin-TGTA (50 μM) in combination with other cancer cells (lung cancer, colon cancer, breast cancer, liver cancer, cervical cancer and gastric cancer cells) were further detected by using the same method as the above.

[3] = system: MCF-7 human breast cell cancer cells; test: MTT colorimetric proliferation / cell survival assay, MCF-7; type: cell-based; conditions: breast cancer; TGTA 50 μM
Procedure: (§3) A flask with the cancer cells required for the experiment, with an original culture solution discarded, was washed for three times with 2 mL of PBS, 1 mL of pancreatin was added for digestion for 30 s, and 2 mL of a medium was added to terminate the digestion. The cells were transferred to a centrifuge tube and centrifuged at 1000 rpm for 3 min, the supernatant was discarded, and 2 mL of a medium was added and blew 10 times to be mixed uniformly. 10 μL of a cell suspension was taken for cell counting, and spread on a 96-well plate, with 5000 cells per well and 3 duplications for each compound, and then the number of cells and cell wells was calculated. The amount of required cell suspension and the number of cells for medium dilution were calculated by cell counting. 100 μL of medium was plated with 5000 cells per well, pipetted and mixed uniformly, and the cells were inoculated using a volley, placed in an incubator for culture, and marked.
(§4) (2) The cells cultured in step (1) was taken, and discarded with the original medium. Auranofin mother liquor was diluted to a diluent with final concentrations of 0, 0.78125, 1.5625, 3.125, 6.25, 12.5, 25, 50 and 100 μM, and mixed uniformly. A volley (using 3 wells) was used to draw 100 μL of dilution per well, a 96-well plate was tilted, diluents with each concentration were added in sequence to the corresponding 3 marked wells carefully to prevent poking the cells, blown and sucked about 3 times to be mixed uniformly, marked, shaken for 3 times, and put into a CO2 incubator for culture. The above steps were repeated for each auranofin diluent.
(§5) After auranofin was added for culture for 1 hour, the mother liquor of the mercapto compound was diluted into […] and mixed uniformly. A volley (using 3 wells) was used to suck 20 μL of diluent per well, the 96-well plate was tilted, the diluents of different mercapto compounds were added in sequence to the corresponding 3 marked wells carefully to prevent poking the cells, blown and sucked about 3 times to be mixed uniformly, and put back to the incubator to continue culture.
(§6) After different mercapto compounds were added to cells for 24 h, 20 μL of MTT (with a concentration of 5 mg/mL in PBS) per well was added to the 96-well plate by a volley; and incubation was carried out at 37° C. for 4 h. At the end of incubation, the MTT mixture was sucked out, and DMSO was added at 130 μL/well using a volley.
as §2

[4] = system: HepG-2 human liver cancer cells; test: MTT colorimetric proliferation / cell survival assay, HepG-2; type: cell-based; conditions: Liver cancer; TGTA 50 μM
Procedure: as §3, §4, §5, §6, §2

[5] = system: MGC803 human gastric cancer cells; test: MTT cell survival assay, MGC803; type: cell-based; conditions: TGTA 50 μM
Procedure: as §1, §2

[6] = system: Hela human cervical cancer cells; test: MTT cell survival assay, Hela; type: cell-based; conditions: TGTA 50 μM
Procedure: as §1, §2

[7] = system: PCGR lung cancer cells; test: MTT cell survival assay, PCGR; type: cell-based; conditions: TGTA 50 μM
Procedure: as §1, §2

[8] = system: A549 human lung cancer cells; test: MTT colorimetric proliferation / cell survival assay, A549; type: cell-based; conditions: Lung cancer; TGTA 50 μM
Procedure: as §3, §4, §5, §6, §2

[9] = system: TrxR; test: Intracellular TrxR activity in HepG2 cells (DTNB reduction); type: cell-based, human; conditions: mercapto compound alone 200 μM, 30% FBS
Procedure: HepG2 cells were used as a test subject.
The cells were inoculated into a 6-well plate at 2×10^5 cell/well and incubated for 24 h.
After the incubation, the cell culture medium was replaced with 30% FBS to simulate the high concentration mercapto environment under the normal physiological condition, and used as a control (without adding any reagents). The experimental group was added with 0.5 μM of auranofin for incubation at 37° C. for 30 min, and then added with the mercapto compound (DEDT, β-mercaptoethanol or mercaptoethylamine) for incubation for 30 min (final concentration of DMSO in the system was ≤1%). The incubated cells were washed for 3 times with PBS, added with 100 μL of icy lysis buffer (containing 50 mM of phosphate buffer with pH 7.4, 1 mM EDTA, and 0.10% Triton-X 100), and then lysed on ice for 5 min to collect the cell lysate.
100 μL of buffer (containing 50 mM of potassium phosphate with pH 7.4, 1 mM EDTA, and 0.2 mM NADPH) was added to the collected cell lysate (10 μg protein), 5,5′-dithiobis (2-nitrobenzoic acid) (DTNB, with a final concentration of 3 mM) was added to initiate a reaction, and the activity of TrxR was obtained on the basis of the increased OD value in 10 minutes (OD detection wavelength was 410 nm). Auranofin alone was the positive control sample, and the blank group was the negative control.

SMILES	Cell survival rate (%) [1] [%]	Cell survival rate after addition of 10 μM auranofin (%) [1] [%]	Activity of TrxR [9] [%]	further results
CCCc1cc(=O)[nH]c(=S)[nH]1 [Propylthiouracil]	101 ± 6	76 ± 9	–	–
[Na+].[Na+].[Na+].[O-]P([O-])([O-])=S [Sodium thiophosphate hydrate]	99 ± 8	79 ± 4	–	–
CC(=O)OC[C@H]1O[C@@H](S)[C@H](OC(C)=O)[C@@H](OC(C)=O)[C@@H]1OC(C)=O [TGTA, 1-thio-β-D-glucose tetraacetate]	97 ± 5	18 ± 2	–	Cell survival rate (%) PC9 [2]: 104 ± 2%; Cell survival rate (%) MCF-7 [3]: 99 ± 3%; Cell survival rate (%) HepG2 [4]: 104 ± 4%; Cell survival rate (%) MGC803 [5]: 104 ± 9%; Cell survival rate (%) Hela [6]: 87 ± 6%; Cell survival rate (%) PCGR [7]: 101 ± 3%; Cell survival rate (%) A549 [8]: 104 ± 6%; Cell survival rate (%) HCT116 ([1]; colon cancer, TGTA 50 μM): 97 ± 5%
NCCS [mercaptoethylamine, mercaptoethanamine]	105 ± 7	85 ± 3	118.2	–
O=S([O-])([O-])=S.[Na+].[Na+] [sodium thiosulfate]	105 ± 5	84 ± 8	–	–
OCCS [β-mercaptoethanol]	96 ± 15	55 ± 4	127.3	–
